Reference: patent US20050095305A1, “Anti-aging agents” (priority 2001, published 2005)

Assays:
Type in all cases: biochemical
[1] = Activity against free radicals, Method A (DPPH° test); conditions: optical density at 513 nm
Procedure: (§1) The effectiveness of the test substances against free radicals was tested by various chemical and biochemical methods: • Method A A first test was carried out using diphenylpicrylhydrazyl (DPPH°) which is a relatively stable radical that forms a purple-colored solution. The optical density (DO) at 513 nm was determined. • Method B Hydroxyl radicals were released from hydrogen peroxide in the presence of iron(II) ions and EDTA and were used to oxidize deoxyribose. The oxidation product forms a pink-colored compound with thiobarbituric acid. Its concentration corresponds to the optical density at 532 nm. […] The superoxide anions dismute into hydrogen peroxide and oxygen either spontaneously or in the presence of Superoxid Dismutase. The quantity of superoxide anion can be determined by NBT reduction via the optical density at 490 nm. A test was conducted to determine whether fewer superoxide anions are generated or more anions are destroyed in the presence of the test substances. The results are set out in Table 1 and represent the EC50 values in % (w/v).

[2] = Activity against free radicals, Method B (hydroxyl radicals, deoxyribose oxidation with EDTA); conditions: hydrogen peroxide, iron(II) ions and EDTA, optical density at 532 nm
Procedure: as §1

[3] = Activity against free radicals, Method C (deoxyribose oxidation in the absence of EDTA); conditions: as Method B in the absence of EDTA
Procedure: as §1

[4] = Activity against free radicals, Method D (xanthine oxidase, NBT reduction); conditions: optical density at 490 nm
Procedure: as §1

Effect against free radicals, Method A, EC50 [1]	Effect against free radicals, Method B, EC50 [2]	Effect against free radicals, Method C, EC50 [3]	Effect against free radicals, Method D, EC50 [4]	Molecule
0.0013 % (w/v)	0.261 % (w/v)	0.9 % (w/v)	0.591 % (w/v)	O=C1O[C@H]([C@@H](O)CO)C(O)=C1O [Ascorbic acid]
0.0067 % (w/v)			No effect	Tocopherol
